The record followed here is patent US20100226881A1, “PYRAZOLO[1,5-a]PYRIDINES AND THEIR USE IN CANCER THERAPY” (Auckland Uniservices Limited, priority 2007, published 2010).

pIC50: −log10 of the molar value. Where a name gives a salt, the structure may show the parent alone. Read-outs that look alike come from different tables or passages of the source.

For orientation: IC50 means the concentration that inhibits the measured activity by half. The pIC50 is the IC50 on a negative log10 scale, so that one unit is a factor of ten. A high value points to a low IC50.

For one assay, the target named is p110δ/p85 (Homo sapiens, UniProt O00329). The assay can be described thus: Inhibition of isolated enzyme, PI 3-kinase p110δ/p85. The settings on record: recombinant enzyme, 100 μM ATP, average of two experiments. In kind it is biochemical. How it is done: (§1) Compounds were evaluated for their ability to inhibit the Class I PI 3-kinase enzymes p110δ/p85, p110α/p85 and p110β/p85. Reaction mixtures comprising 0.1 μg of recombinant enzyme, 10 μg of L-α-phosphatidylinositol, the compound (DMSO only or DMSO+compound to a final concentration of 1%), 2× Lipid Kinase Buffer (40 mM Tris-HCl pH 7.4, 200 mM NaCl, 1 mM EDTA) were activated by the addition of an ATP mix (5 mM MgCl2, 100 μM ATP, 0.1 μL [γ^33P]ATP). […] Firstly, 200 μL of chloroform/methanol (1:1) was added, the biphasic reactions mixed and centrifuged briefly, and the inorganic phase was removed and discarded.

A further assay has as its system NZB5. In words: Cellular growth inhibition (3H-thymidine), NZB5. The format is cell-based. The settings on record: Homo sapiens, five days, 3H-thymidine incorporation, maximum 20 μM. As to the method:
(§2) The compounds were evaluated against two early passage human cell lines NZB5 and NZOV9, whose development and culture have been described [Marshall et al, Oncol. Res. 2004, 14, 297]. The cells were grown in ITS medium (α-modified minimal essential medium supplemented insulin, transferrin, selenite and 5% fetal bovine serum) and grown on 96-well tissue culture plates under an atmosphere of 5% O2, 5% CO2 and 90% N2. Individual wells contained 500-1000 cells (depending on the growth rate) in a volume of 150 μL. Compounds were added at 10-fold concentration steps to a maximum of 20 μM and plates were incubated for five days, with ^3H-thymidine being added over the last 6 h. Cells were harvested and incorporated radioactivity measured. Duplicate samples were analyzed for each compound dose with multiple control samples. Data were fitted by a least-squares method to an exponential of the form y=y0+ae^−bx, where y is the radioactivity (corrected for background and normalized to 100% of the control) x is the radiation dose, and y0, a and b are variables, and the IC50 value defined as the compound concentration reducing ^3H-thymidine levels by 50%.
On the technique in general: Uptake of a labelled nucleoside into DNA is a usual measure of proliferation.

The test system of another assay is NZOV9. The assay can be described thus: Cellular growth inhibition (3H-thymidine), NZOV9. The format is cell-based. The settings on record: Homo sapiens, five days, 3H-thymidine incorporation, maximum 20 μM. How it is done:
as §2

Another assay deals with p110α/p85 (Homo sapiens, UniProt P42336). In words: Inhibition of isolated enzyme, PI 3-kinase p110α/p85. The settings on record: for IC50: read-out: IC50 (nM) p110α, recombinant enzyme, 100 μM ATP, average of two experiments.
Another assay deals with p110β/p85 (Homo sapiens, UniProt P42338). The assay can be described thus: Inhibition of isolated enzyme, PI 3-kinase p110β/p85. In kind it is biochemical. The settings on record: recombinant enzyme, 100 μM ATP, average of two experiments. How it is done: as §1
Sequence of p110β/p85 (P42338 whole entry, species assumed): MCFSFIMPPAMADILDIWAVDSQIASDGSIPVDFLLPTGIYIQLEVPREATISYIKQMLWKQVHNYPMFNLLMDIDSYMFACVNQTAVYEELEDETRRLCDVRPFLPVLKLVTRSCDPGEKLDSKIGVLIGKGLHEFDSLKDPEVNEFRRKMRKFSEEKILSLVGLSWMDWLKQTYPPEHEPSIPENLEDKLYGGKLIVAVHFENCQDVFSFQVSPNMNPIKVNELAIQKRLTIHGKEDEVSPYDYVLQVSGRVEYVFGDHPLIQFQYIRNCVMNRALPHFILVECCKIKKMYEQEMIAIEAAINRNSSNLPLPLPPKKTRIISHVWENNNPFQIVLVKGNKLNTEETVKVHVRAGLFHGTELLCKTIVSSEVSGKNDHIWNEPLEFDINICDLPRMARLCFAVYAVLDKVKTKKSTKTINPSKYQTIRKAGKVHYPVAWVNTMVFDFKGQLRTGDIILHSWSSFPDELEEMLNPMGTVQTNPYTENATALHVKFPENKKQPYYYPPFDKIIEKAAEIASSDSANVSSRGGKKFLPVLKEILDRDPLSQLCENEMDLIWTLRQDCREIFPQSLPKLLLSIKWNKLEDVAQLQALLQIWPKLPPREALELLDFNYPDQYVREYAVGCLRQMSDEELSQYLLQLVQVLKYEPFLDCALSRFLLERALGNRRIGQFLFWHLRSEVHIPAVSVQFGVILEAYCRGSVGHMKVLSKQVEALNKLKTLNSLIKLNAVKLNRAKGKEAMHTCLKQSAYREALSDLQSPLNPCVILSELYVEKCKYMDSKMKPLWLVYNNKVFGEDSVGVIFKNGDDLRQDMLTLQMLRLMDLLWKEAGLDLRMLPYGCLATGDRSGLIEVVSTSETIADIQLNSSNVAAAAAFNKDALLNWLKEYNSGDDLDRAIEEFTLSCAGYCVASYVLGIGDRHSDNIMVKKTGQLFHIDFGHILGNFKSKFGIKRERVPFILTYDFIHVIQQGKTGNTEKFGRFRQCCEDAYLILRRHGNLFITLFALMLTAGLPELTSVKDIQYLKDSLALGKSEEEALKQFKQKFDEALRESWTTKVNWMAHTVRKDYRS
Sequence of p110β/p85 (P27986 whole entry partner, species assumed): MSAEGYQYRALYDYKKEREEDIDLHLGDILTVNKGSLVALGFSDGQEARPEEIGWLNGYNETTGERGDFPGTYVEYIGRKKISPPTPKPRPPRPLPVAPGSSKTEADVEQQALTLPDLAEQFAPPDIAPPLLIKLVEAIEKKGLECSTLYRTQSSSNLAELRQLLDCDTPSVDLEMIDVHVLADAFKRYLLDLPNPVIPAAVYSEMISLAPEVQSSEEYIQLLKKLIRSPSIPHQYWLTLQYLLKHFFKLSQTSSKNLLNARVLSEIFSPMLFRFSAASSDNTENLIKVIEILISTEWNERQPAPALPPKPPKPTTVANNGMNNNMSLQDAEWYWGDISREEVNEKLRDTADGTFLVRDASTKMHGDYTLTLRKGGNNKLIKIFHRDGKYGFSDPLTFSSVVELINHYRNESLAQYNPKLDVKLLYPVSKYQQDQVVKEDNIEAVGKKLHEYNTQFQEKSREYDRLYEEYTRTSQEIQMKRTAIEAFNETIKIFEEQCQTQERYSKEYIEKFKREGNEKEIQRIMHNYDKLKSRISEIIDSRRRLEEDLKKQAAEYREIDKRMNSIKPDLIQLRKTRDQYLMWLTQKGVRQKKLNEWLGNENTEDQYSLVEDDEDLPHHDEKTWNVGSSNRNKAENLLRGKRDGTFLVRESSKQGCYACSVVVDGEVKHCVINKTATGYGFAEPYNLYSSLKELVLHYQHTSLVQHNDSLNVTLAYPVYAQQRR

Sequence of p110δ/p85 (O00329 whole entry, species assumed): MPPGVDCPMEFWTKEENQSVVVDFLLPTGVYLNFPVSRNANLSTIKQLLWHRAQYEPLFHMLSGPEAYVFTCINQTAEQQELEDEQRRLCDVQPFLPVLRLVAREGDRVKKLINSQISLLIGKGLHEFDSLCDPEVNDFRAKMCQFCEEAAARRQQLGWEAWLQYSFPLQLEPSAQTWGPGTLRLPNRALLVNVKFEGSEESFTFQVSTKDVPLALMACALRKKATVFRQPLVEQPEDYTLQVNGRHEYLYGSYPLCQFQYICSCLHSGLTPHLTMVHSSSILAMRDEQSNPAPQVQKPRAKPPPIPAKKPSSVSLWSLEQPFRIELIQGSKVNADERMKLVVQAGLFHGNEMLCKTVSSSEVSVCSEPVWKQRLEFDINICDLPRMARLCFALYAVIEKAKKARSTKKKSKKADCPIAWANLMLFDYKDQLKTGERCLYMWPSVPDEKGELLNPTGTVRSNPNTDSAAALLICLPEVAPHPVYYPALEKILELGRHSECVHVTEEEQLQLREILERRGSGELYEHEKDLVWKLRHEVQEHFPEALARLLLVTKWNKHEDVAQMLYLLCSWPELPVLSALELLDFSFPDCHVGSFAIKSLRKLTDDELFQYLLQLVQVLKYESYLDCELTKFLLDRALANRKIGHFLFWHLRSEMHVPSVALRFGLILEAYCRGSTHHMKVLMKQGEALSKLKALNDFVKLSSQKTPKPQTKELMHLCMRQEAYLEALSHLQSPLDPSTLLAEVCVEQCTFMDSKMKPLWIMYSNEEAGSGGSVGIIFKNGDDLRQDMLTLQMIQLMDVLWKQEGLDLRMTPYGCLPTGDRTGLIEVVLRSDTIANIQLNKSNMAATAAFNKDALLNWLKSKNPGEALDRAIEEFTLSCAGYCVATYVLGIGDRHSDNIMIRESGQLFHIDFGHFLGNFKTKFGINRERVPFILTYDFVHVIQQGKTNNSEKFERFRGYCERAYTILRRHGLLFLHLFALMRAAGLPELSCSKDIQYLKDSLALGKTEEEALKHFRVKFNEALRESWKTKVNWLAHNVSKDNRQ
Sequence of p110δ/p85 (P27986 whole entry partner, species assumed): as the sequence (P27986 whole entry partner, species assumed) above
Sequence of p110α/p85 (P42336 whole entry, species assumed): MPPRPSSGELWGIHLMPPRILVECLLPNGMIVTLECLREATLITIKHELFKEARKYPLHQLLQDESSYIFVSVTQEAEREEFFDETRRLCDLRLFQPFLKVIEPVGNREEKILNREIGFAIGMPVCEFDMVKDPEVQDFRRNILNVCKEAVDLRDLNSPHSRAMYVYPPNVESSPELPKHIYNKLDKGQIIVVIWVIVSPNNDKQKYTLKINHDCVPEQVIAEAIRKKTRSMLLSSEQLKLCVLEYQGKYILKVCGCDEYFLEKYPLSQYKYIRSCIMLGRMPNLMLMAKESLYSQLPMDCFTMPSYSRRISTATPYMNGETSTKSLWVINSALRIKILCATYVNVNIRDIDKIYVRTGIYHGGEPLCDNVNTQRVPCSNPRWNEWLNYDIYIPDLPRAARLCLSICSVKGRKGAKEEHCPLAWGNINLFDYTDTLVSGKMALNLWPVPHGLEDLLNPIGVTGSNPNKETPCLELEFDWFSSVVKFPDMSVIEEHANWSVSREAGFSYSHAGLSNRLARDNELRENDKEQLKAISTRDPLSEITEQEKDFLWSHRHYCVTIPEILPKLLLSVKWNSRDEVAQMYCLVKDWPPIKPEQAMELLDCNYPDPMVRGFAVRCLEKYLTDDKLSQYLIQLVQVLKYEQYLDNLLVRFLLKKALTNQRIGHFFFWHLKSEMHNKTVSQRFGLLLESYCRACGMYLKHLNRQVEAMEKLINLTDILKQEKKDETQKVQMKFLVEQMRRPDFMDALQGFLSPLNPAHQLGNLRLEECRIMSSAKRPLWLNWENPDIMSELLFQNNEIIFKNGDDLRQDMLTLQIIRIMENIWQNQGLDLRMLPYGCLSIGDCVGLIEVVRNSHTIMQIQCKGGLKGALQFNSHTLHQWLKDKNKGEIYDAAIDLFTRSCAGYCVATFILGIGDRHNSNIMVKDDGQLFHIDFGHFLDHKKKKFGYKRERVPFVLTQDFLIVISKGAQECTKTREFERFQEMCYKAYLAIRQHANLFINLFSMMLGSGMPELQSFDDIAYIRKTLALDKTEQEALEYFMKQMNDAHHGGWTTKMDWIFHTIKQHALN
Sequence of p110α/p85 (P27986 whole entry partner, species assumed): as the sequence (P27986 whole entry partner, species assumed) above

As for `Cc1ccc([N+](=O)[O-])cc1S(=O)(=O)N(C)N=Cc1cnn2ccccc12` [E1, N,2-Dimethyl-5-nitro-N′-(pyrazolo[1,5-a]pyridin-3-ylmethylene)benzene-sulfonohydrazide], the IC50 at p110δ/p85 came out at 3400 nM; with NZB5, 0.47 µM; in the assay with NZOV9, 0.66 µM; on p110α/p85, 190 nM.

As to `Cc1ccn2ncc(C=NN(C)S(=O)(=O)c3cc([N+](=O)[O-])ccc3C)c2c1` [E2, N,2-Dimethyl-N′-((5-methylpyrazolo[1,5-a]pyridin-3-yl)methylene)-5-nitro-benzenesulfonohydrazide], the half-inhibitory concentration (IC50) is greater than 1000 nM on p110β/p85; 640 nM at p110δ/p85; 0.05 µM with NZB5; 0.07 µM in the assay with NZOV9; 110 nM at p110α/p85.

As to `Cc1ccn2nc(C)c(C=NN(C)S(=O)(=O)c3cc([N+](=O)[O-])ccc3C)c2c1` [E4, N′-((2,5-Dimethylpyrazolo[1,5-a]pyridin-3-yl)methylene)-N,2-dimethyl-5-nitrobenzenesulfonohydrazide], the half-inhibitory concentration (IC50) at p110β/p85 is greater than 1000 nM; at p110δ/p85, greater than 1000 nM; in the assay with NZB5, 15 µM; in the assay on NZOV9, 20 µM; on p110α/p85 it was 870 nM.

In the case of `COC(=O)c1ccn2ncc(C=NN(C)S(=O)(=O)c3cc([N+](=O)[O-])ccc3C)c2c1` [E6, Methyl 3-((2-methyl-2-(2-methyl-5-nitrophenylsulfonyl)hydrazono)methyl)pyrazolo[1,5-a]pyridine-5-carboxylate], the IC50 was greater than 1000 nM on p110β/p85; 790 nM on p110δ/p85; 1.8 µM with NZB5; 1.5 µM with NZOV9; 260 nM on p110α/p85.

Take `COc1ccn2ncc(C=NN(C)S(=O)(=O)c3cc([N+](=O)[O-])ccc3C)c2c1` [E9, N′-((5-Methoxypyrazolo[1,5-a]pyridin-3-yl)methylene)-N,2-dimethyl-5-nitrobenzenesulfonohydrazide]: the IC50 was greater than 1000 nM at p110β/p85; greater than 1000 nM on p110δ/p85; 0.94 µM with NZB5; 0.52 µM with NZOV9; 230 nM at p110α/p85.

With `Cc1ccc([N+](=O)[O-])cc1S(=O)(=O)N(C)N=Cc1cnn2ccc(I)cc12` [E15, N′-((5-Iodopyrazolo[1,5-a]pyridin-3-yl)methylene)-N,2-dimethyl-5-nitro-benzenesulfonohydrazide], the IC50 was found to be 720 nM on p110β/p85, 240 nM at p110δ/p85, 0.04 µM with NZB5 and 0.05 µM in the assay with NZOV9. The pIC50 on p110α/p85 is 7.64.

As to `Cc1ccc([N+](=O)[O-])cc1S(=O)(=O)N(C)N=Cc1cnn2ccc(C3CC3)cc12` [E17, N′-((5-cyclopropylpyrazolo[1,5-a]pyridin-3-yl)methylene)-N,2-dimethyl-5-nitrobenzenesulfonohydrazide], the IC50 on p110β/p85 is greater than 1000 nM; at p110δ/p85, greater than 1000 nM; in the assay with NZB5, 0.74 µM; in the assay with NZOV9, 0.67 µM; on p110α/p85, 330 nM.

On to `C#Cc1ccn2ncc(C=NN(C)S(=O)(=O)c3cc([N+](=O)[O-])ccc3C)c2c1` [E18, N′-((5-Ethynylpyrazolo[1,5-a]pyridin-3-yl)methylene)-N,2-dimethyl-5-nitrobenzenesulfonohydrazide], for which the IC50 on p110β/p85 was 47 nM; at p110δ/p85, 43 nM; in the assay on NZB5, 0.16 µM; in the assay on NZOV9, 0.11 µM; at p110α/p85 it was 1.4 nM.

With `Cc1ccc(F)cc1S(=O)(=O)N(C)N=Cc1cnn2ccc(C#N)cc12` [E27, N′-((5-Cyanopyrazolo[1,5-a]pyridin-3-yl)methylene)-5-fluoro-N,2-dimethylbenzenesulfonohydrazide], the concentration for half-maximal inhibition (IC50) at p110β/p85 is 870 nM; on p110δ/p85, 340 nM; in the assay on NZB5, greater than 20 µM; with NZOV9, 14 µM; at p110α/p85, 86 nM.

Turning to `CC(C)c1ccc([N+](=O)[O-])cc1S(=O)(=O)N(C)N=Cc1cnn2ccc(C#N)cc12` [E33, N′-((5-Cyanopyrazolo[1,5-a]pyridin-3-yl)methylene)-2-isopropyl-N-methyl-5-nitrobenzenesulfonohydrazide], the half-inhibitory concentration (IC50) was 300 nM on p110β/p85; 40 nM at p110δ/p85; 0.19 µM with NZB5; 0.26 µM in the assay on NZOV9; 1.8 nM at p110α/p85.

Consider `CN(N=Cc1cnn2ccc(C#N)cc12)S(=O)(=O)c1cc([N+](=O)[O-])ccc1Cl` [E34, 2-Chloro-N′-((5-cyanopyrazolo[1,5-a]pyridin-3-yl)methylene)-N-methyl-5-nitrobenzenesulfonohydrazide], for which the results for the concentration for half-maximal inhibition (IC50) with NZB5 and in the assay with NZOV9 were 0.88 µM and 0.35 µM, respectively.

As for `Cc1ccc(C#N)cc1S(=O)(=O)N(CCO)N=Cc1cnn2ccc(C#N)cc12` [E40, 5-Cyano-N′-((5-cyanopyrazolo[1,5-a]pyridin-3-yl)methylene)-N-(2-hydroxyethyl)-2-methylbenzenesulfonohydrazide], the concentration for half-maximal inhibition (IC50) was 23 nM at p110β/p85; 25 nM on p110δ/p85; 3.2 µM in the assay with NZB5; 0.62 µM with NZOV9; 3 nM on p110α/p85.

On to `Cc1ccc([N+](=O)[O-])cc1S(=O)(=O)NN=Cc1cnn2ccc(C#N)cc12` [E42, N′-((5-Cyanopyrazolo[1,5-a]pyridin-3-yl)methylene)-2-methyl-5-nitro-benzenesulfonohydrazide], for which the IC50 on p110β/p85 was determined as 620 nM; at p110δ/p85 it was 580 nM; in the assay on NZB5, 2.5 µM; with NZOV9 it was 4.9 µM; on p110α/p85, 13 nM.

As to `Cc1ccc([N+](=O)[O-])cc1S(=O)(=O)N(CCN(C)C)N=Cc1cnn2ccc(C#N)cc12` [E46, N′-((5-Cyanopyrazolo[1,5-a]pyridin-3-yl)methylene)-N-(2-(dimethylamino)ethyl)-2-methyl-5-nitrobenzenesulfonohydrazide], the concentration for half-maximal inhibition (IC50) came out at 200 nM on p110β/p85; 130 nM at p110δ/p85; 0.37 µM with NZB5; 0.4 µM in the assay with NZOV9; 30 nM on p110α/p85.

With `Cc1ccc([N+](=O)[O-])cc1S(=O)(=O)N(CCN1CCOCC1)N=Cc1cnn2ccc(C#N)cc12` [E47, N′-((5-Cyanopyrazolo[1,5-a]pyridin-3-yl)methylene)-2-methyl-N-(2-morpholinoethyl)-5-nitrobenzenesulfonohydrazide], the IC50 on p110β/p85 came to 230 nM; on p110δ/p85, 10 nM; in the assay with NZB5 it was 0.51 µM; in the assay with NZOV9, 0.55 µM; on p110α/p85, 4.5 nM.

On to `CN(N=Cc1cnn2ccc(C#N)cc12)S(=O)(=O)c1cc([N+](=O)[O-])ccc1NCCN1CCOCC1` [E58, N′-((5-Cyanopyrazolo[1,5-a]pyridin-3-yl)methylene)-N-methyl-2-(2-morpholinoethylamino)-5-nitrobenzenesulfonohydrazide hydrochloride], for which the IC50 on p110β/p85 was greater than 1000 nM; on p110δ/p85, 26 nM; in the assay with NZB5, 9.4 µM; in the assay on NZOV9 it was greater than 20 µM; on p110α/p85, 9 nM.

As to `CN(N=Cc1cnn2ccc(C#N)cc12)S(=O)(=O)c1cc([N+](=O)[O-])ccc1NCCc1c[nH]cn1` [E63, 2-(2-(1H-Imidazol-4-yl)-ethylamino)-N′-((5-cyanopyrazolo[1,5-a]pyridin-3-yl)methylene)-N-methyl-5-nitrobenzenesulfonohydrazide hydrochloride], the IC50 is greater than 1000 nM on p110β/p85; 320 nM at p110δ/p85; 0.82 µM in the assay with NZB5; 0.61 µM in the assay on NZOV9; 55 nM at p110α/p85.
